Laboratory results published in patent US11987648B2, “Cyclohexapeptides as selective somatostatin SST5 receptor agonists” (Heptares Therapeutics Limited, priority 2018, dated 2024).
*1 amine or outer side, *2 acyl side, *3 side chain or, on linkers, in order; H or OH if unused. Where a SMILES comes first, the peptide text is derived from it. Side-chain parts run from the residue outwards. [ ]: non-standard residue; d: D form. The star is where a group is joined. Ala(piperidin-4-yl) = O=C([C@H](CC1CCN([*:3])CC1)N[*:1])[*:2]; dTrp(4-OMe) = COc1cccc2[nH]cc(C[C@@H](N)C(=O)O)c12; dTrp(5-OMe) = COc1ccc2[nH]cc(C[C@@H](N)C(=O)O)c2c1; Ala(piperazin-1-yl) = N[C@@H](CN1CCNCC1)C(=O)O; Phe(3-Cl) = N[C@@H](Cc1cccc(Cl)c1)C(=O)O; Phe(4-Cl) = N[C@@H](Cc1ccc(Cl)cc1)C(=O)O; Morpholine(3S-CO) = O=C(O)[C@@H]1COCCN1; Ethylenediamine = C(CN[*:2])N[*:1]; d(hPhe) = N[C@H](CCc1ccccc1)C(=O)O; Hyp = O=C(O)[C@@H]1C[C@@H](O)CN1; hPhe = N[C@@H](CCc1ccccc1)C(=O)O; 3Pal = N[C@@H](Cc1cccnc1)C(=O)O; Cyclohexylmethyl = C1CCC(C*)CC1; Tic = O=C(O)[C@@H]1Cc2ccccc2CN1; Benzyl(4-Cl) = Clc1ccc(C*)cc1; X6 = Clc1cccc(Cl)c1C*; CO = O=C([*:1])[*:2]; Bn = c1ccc(C*)cc1; X1 = C1CCC(C*)C1; X4 = C1CC(C*)C1

Assays:
SST5 = SST5 (Homo sapiens, UniProt P35346); assay: Hit Hunter cAMP XS+ assay, SST5 activation via Gi (reduction of forskolin-stimulated cAMP); type: cell-based; settings: for Emax: read-out: SST5 (EMax); for EC50: reduction of forskolin-stimulated cAMP, 4-parameter logistic fit, read-out: SST5 pEC50 (converted); for SST5/2 Selectivity: selectivity for SST5 over SST2
SST5, sequence (P35346 whole entry): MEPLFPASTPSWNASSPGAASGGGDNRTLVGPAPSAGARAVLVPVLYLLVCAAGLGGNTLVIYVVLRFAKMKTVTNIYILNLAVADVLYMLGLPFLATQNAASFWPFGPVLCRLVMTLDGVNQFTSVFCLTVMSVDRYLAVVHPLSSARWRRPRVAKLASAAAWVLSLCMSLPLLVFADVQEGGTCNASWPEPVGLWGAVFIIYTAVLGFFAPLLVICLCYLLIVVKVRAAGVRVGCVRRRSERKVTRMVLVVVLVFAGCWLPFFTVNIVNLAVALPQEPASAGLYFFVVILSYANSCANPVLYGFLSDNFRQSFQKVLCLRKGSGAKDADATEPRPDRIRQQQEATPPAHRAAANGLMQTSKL
Description: (§1) A Hit Hunter® cAMP XS+ assay was used to monitor activation of the SST2 and SST5 via the Gi G protein. Cells were pre-stimulated with forskolin to elicit a cAMP response and the potency and efficacy of somatostatin agonists to reduce cAMP was measured. Briefly cells (10,000 cells/well) were incubated (37° C.; 30 min) with compound ([…]) in media (2:1 HBSS/11 mM Hepes: cAMP XS+Ab reagent) in the presence of EC80 forskolin ([…] and 15 μM SST5). Signal was detected through incubation with 20 μL cAMP XS+ED/CL lysis cocktail ([…]; RT) followed by incubation with […] cAMP XS+EA reagent (180 min; RT). Microplates were read with a PerkinElmer Envision™ instrument for chemiluminescent signal detection.

SST2 = SST2 (Homo sapiens, UniProt P30874); assay: Hit Hunter cAMP XS+ assay, SST2 activation via Gi (reduction of forskolin-stimulated cAMP); type: cell-based; settings: for Emax: read-out: SST2 (EMax); for EC50: reduction of forskolin-stimulated cAMP, 4-parameter logistic fit, read-out: SST2 pEC50 (converted)
SST2, sequence (P30874 whole entry): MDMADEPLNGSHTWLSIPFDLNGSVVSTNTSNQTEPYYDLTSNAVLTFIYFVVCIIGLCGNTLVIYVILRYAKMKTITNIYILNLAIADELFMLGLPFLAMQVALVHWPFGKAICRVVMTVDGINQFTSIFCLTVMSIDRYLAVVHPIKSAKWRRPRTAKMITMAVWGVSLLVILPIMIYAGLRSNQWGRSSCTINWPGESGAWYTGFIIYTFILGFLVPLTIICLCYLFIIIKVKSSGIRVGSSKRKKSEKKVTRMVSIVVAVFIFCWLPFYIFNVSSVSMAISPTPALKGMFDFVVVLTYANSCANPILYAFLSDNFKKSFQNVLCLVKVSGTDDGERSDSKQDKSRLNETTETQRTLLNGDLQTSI
Description: as §1

| SMILES | Emax (SST5) [%] | EC50 (SST5) [nM] | SST5/2 Selectivity (SST5) | Emax (SST2) [%] | EC50 (SST2) [nM] |
| --- | --- | --- | --- | --- | --- |
| NCCNC(=O)O[C@@H]1C[C@H]2C(=O)N[C@H](CCc3ccccc3)C(=O)N[C@H](Cc3c[nH]c4ccccc34)C(=O)N[C@@H](CC3CCNCC3)C(=O)N[C@@H](Cc3ccc(OCc4ccccc4)cc3)C(=O)N[C@@H](Cc3ccccc3)C(=O)N2C1 [Example 38] (cyclo(F[Hyp]([CO-Ethylenediamine])[d(hPhe)][dW][Ala(piperidin-4-yl)]Y(Bn))) | 103 | 12.6 | 171.5 | 82.7 | 2510 |
| COc1ccc2[nH]cc(C[C@H]3NC(=O)[C@H](CCc4ccccc4)NC(=O)[C@@H]4C[C@@H](OC(=O)NCCN)CN4C(=O)[C@H](Cc4cccnc4)NC(=O)[C@H](Cc4ccc(OCc5ccccc5)cc4)NC(=O)[C@H](CC4CCNCC4)NC3=O)c2c1 [Example 39] (cyclo([3Pal][Hyp]([CO-Ethylenediamine])[hPhe][dTrp(5-OMe)][Ala(piperidin-4-yl)]Y(Bn))) | 107 | 0.398 | 1104.6 | 100 | 398 |
| NCCNC(=O)O[C@@H]1C[C@H]2C(=O)N[C@@H](CCc3ccccc3)C(=O)N[C@H](Cc3c[nH]c4ccccc34)C(=O)N[C@@H](CC3CCNCC3)C(=O)N[C@@H](Cc3ccc(OCc4ccc(Cl)cc4)cc3)C(=O)N[C@@H](Cc3cccnc3)C(=O)N2C1 [Example 40] (cyclo([3Pal][Hyp]([CO-Ethylenediamine])[hPhe][dW][Ala(piperidin-4-yl)]Y(Benzyl(4-Cl)))) | 106 | 2.51 | 126.6 | 91.2 | 316 |
| NCCNC(=O)O[C@@H]1C[C@H]2C(=O)N[C@@H](CCc3ccccc3)C(=O)N[C@H](Cc3c[nH]c4ccccc34)C(=O)N[C@@H](CC3CCNCC3)C(=O)N[C@@H](Cc3ccc(OCc4ccccc4)cc3)C(=O)N[C@@H](Cc3cccc(Cl)c3)C(=O)N2C1 [Example 41] (cyclo([Hyp]([CO-Ethylenediamine])[hPhe][dW][Ala(piperidin-4-yl)]Y(Bn)[Phe(3-Cl)])) | 104 | 0.158 | 51.0 | 102 | 7.94 |
| NCCNC(=O)O[C@@H]1C[C@H]2C(=O)N[C@@H](CCc3ccccc3)C(=O)N[C@H](Cc3c[nH]c4ccccc34)C(=O)N[C@@H](CC3CCNCC3)C(=O)N[C@@H](Cc3ccc(OCc4ccccc4)cc3)C(=O)N[C@@H](Cc3ccc(Cl)cc3)C(=O)N2C1 [Example 42] (cyclo([Hyp]([CO-Ethylenediamine])[hPhe][dW][Ala(piperidin-4-yl)]Y(Bn)[Phe(4-Cl)])) | 104 | 0.251 | 45.1 | 99.3 | 12.6 |
| COc1ccc(C[C@@H]2NC(=O)[C@H](Cc3ccc(OCc4ccccc4)cc3)NC(=O)[C@H](CC3CCNCC3)NC(=O)[C@@H](Cc3c[nH]c4ccccc34)NC(=O)[C@H](CCc3ccccc3)NC(=O)[C@@H]3C[C@@H](OC(=O)NCCN)CN3C2=O)cc1 [Example 43] (cyclo([Hyp]([CO-Ethylenediamine])[hPhe][dW][Ala(piperidin-4-yl)]Y(Bn)Y(Me))) | 107 | 0.316 | 94.3 | 101 | 31.6 |
| NCCNC(=O)O[C@@H]1C[C@H]2C(=O)N[C@@H](CCc3ccccc3)C(=O)N[C@H](Cc3c[nH]c4ccccc34)C(=O)N[C@@H](CC3CCNCC3)C(=O)N[C@@H](Cc3ccc(OCC4CCCCC4)cc3)C(=O)N3Cc4ccccc4C[C@H]3C(=O)N2C1 [Example 44] (cyclo([Hyp]([CO-Ethylenediamine])[hPhe][dW][Ala(piperidin-4-yl)]Y(Cyclohexylmethyl)[Tic])) | 105 | 1 | 823.8 | 75.3 | 794 |
| O=C1N[C@@H](Cc2ccc(OCc3ccccc3)cc2)C(=O)N2Cc3ccccc3C[C@H]2C(=O)N2CCOC[C@H]2C(=O)N[C@@H](CCc2ccccc2)C(=O)N[C@H](Cc2c[nH]c3ccccc23)C(=O)N[C@H]1CC1CCNCC1 [Example 45] (cyclo([Tic][Morpholine(3S-CO)][hPhe][dW][Ala(piperidin-4-yl)]Y(Bn))) | 100 | 0.398 | 430.7 | 100 | 158 |
| COc1cccc2[nH]cc(C[C@H]3NC(=O)[C@H](CCc4ccccc4)NC(=O)[C@@H]4COCCN4C(=O)[C@@H]4Cc5ccccc5CN4C(=O)[C@H](Cc4ccc(OCc5ccccc5)cc4)NC(=O)[C@H](CC4CCNCC4)NC3=O)c12 [Example 46] (cyclo([Tic][Morpholine(3S-CO)][hPhe][dTrp(4-OMe)][Ala(piperidin-4-yl)]Y(Bn))) | 102 | 0.0794 | 527.6 | 98.6 | 39.8 |
| NCCNC(=O)O[C@@H]1C[C@H]2C(=O)N[C@@H](CCc3ccccc3)C(=O)N[C@H](Cc3c[nH]c4ccccc34)C(=O)N[C@@H](CC3CCNCC3)C(=O)N[C@@H](Cc3ccc(OCc4c(Cl)cccc4Cl)cc3)C(=O)N[C@@H](Cc3cccnc3)C(=O)N2C1 [Example 47] (cyclo([3Pal][Hyp]([CO-Ethylenediamine])[hPhe][dW][Ala(piperidin-4-yl)]Y(X6))) | 108 | 0.794 | 226.4 | 100 | 200 |
| NCCNC(=O)O[C@@H]1C[C@H]2C(=O)N[C@@H](CCc3ccccc3)C(=O)N[C@H](Cc3c[nH]c4ccccc34)C(=O)N[C@@H](CN3CCNCC3)C(=O)N[C@@H](Cc3ccc(OCc4ccccc4)cc3)C(=O)N[C@@H](Cc3cccc(Cl)c3)C(=O)N2C1 [Example 48] (cyclo([Hyp]([CO-Ethylenediamine])[hPhe][dW][Ala(piperazin-1-yl)]Y(Bn)[Phe(3-Cl)])) | 103 | 0.02 | 106.6 | 100 | 2 |
| NCCNC(=O)O[C@@H]1C[C@H]2C(=O)N[C@@H](CCc3ccccc3)C(=O)N[C@H](Cc3c[nH]c4ccccc34)C(=O)N[C@@H](CC3CCNCC3)C(=O)N[C@@H](Cc3ccc(OCC4CCCC4)cc3)C(=O)N[C@@H](Cc3cccnc3)C(=O)N2C1 [Example 49] (cyclo([3Pal][Hyp]([CO-Ethylenediamine])[hPhe][dW][Ala(piperidin-4-yl)]Y(X1))) | 103 | 3.16 | 143.3 | 98.9 | 501 |
| NCCNC(=O)O[C@@H]1C[C@H]2C(=O)N[C@@H](CCc3ccccc3)C(=O)N[C@H](Cc3c[nH]c4ccccc34)C(=O)N[C@@H](CC3CCNCC3)C(=O)N[C@@H](Cc3ccc(OCC4CCC4)cc3)C(=O)N[C@@H](Cc3cccnc3)C(=O)N2C1 [Example 50] (cyclo([3Pal][Hyp]([CO-Ethylenediamine])[hPhe][dW][Ala(piperidin-4-yl)]Y(X4))) | 103 | 15.8 | 41.1 | 95.4 | 631 |
| NCCNC(=O)O[C@@H]1C[C@H]2C(=O)N[C@@H](CCc3ccccc3)C(=O)N[C@H](Cc3c[nH]c4ccccc34)C(=O)N[C@@H](CN3CCNCC3)C(=O)N[C@@H](Cc3ccc(OCc4ccccc4)cc3)C(=O)N[C@@H](Cc3ccc(Cl)cc3)C(=O)N2C1 [Example 51] (cyclo([Hyp]([CO-Ethylenediamine])[hPhe][dW][Ala(piperazin-1-yl)]Y(Bn)[Phe(4-Cl)])) | 106 | 0.0794 | 64.3 | 100 | 5.01 |
| NCCNC(=O)O[C@@H]1C[C@H]2C(=O)N[C@@H](CCc3ccccc3)C(=O)N[C@H](Cc3c[nH]c4ccccc34)C(=O)N[C@@H](CN3CCNCC3)C(=O)N[C@@H](Cc3ccc(OCC4CCCCC4)cc3)C(=O)N[C@@H](Cc3cccnc3)C(=O)N2C1 [Example 52] (cyclo([3Pal][Hyp]([CO-Ethylenediamine])[hPhe][dW][Ala(piperazin-1-yl)]Y(Cyclohexylmethyl))) | 107 | 0.158 | 2108.2 | 96.8 | 398 |
| NCCNC(=O)O[C@@H]1C[C@H]2C(=O)N[C@H](CCc3ccccc3)C(=O)N[C@H](Cc3c[nH]c4ccccc34)C(=O)N[C@@H](CC3CCNCC3)C(=O)N[C@@H](Cc3ccc(OCC4CCCCC4)cc3)C(=O)N[C@@H](Cc3cccnc3)C(=O)N2C1 [Example 53] (cyclo([3Pal][Hyp]([CO-Ethylenediamine])[d(hPhe)][dW][Ala(piperidin-4-yl)]Y(Cyclohexylmethyl))) | 103 | 31.6 | 293.1 | 50.9 | > 10000 |
| NCCNC(=O)O[C@@H]1C[C@H]2C(=O)N[C@@H](CCc3ccccc3)C(=O)N[C@H](Cc3c[nH]c4ccccc34)C(=O)N[C@@H](CC3CCNCC3)C(=O)N[C@@H](Cc3ccc(OCC4CCCCC4)cc3)C(=O)N[C@@H](Cc3cccnc3)C(=O)N2C1 [Example 54] (cyclo([3Pal][Hyp]([CO-Ethylenediamine])[hPhe][dW][Ala(piperidin-4-yl)]Y(Cyclohexylmethyl))) | 104 | 0.501 | 1083.5 | 96.2 | 631 |
